{"source": "paper PMC7827406", "about": "“Structure–Activity Relationship (SAR) Study of Spautin-1 to Entail the Discovery of Novel NEK4 Inhibitors” (International Journal of Molecular Sciences, 2021)", "test_in_all_cases": "biochemical", "design_in_all_cases": "Eurofins KinaseProfiler full panel at Km ATP, residual kinase activity (%) relative to DMSO", "key": {"GSK3β(h)": {"target": "T1, GSK3β(h) (Homo sapiens, UniProt P49841)", "T1 construct": "gene GSK3B", "T1 sequence (P49841 whole entry)": "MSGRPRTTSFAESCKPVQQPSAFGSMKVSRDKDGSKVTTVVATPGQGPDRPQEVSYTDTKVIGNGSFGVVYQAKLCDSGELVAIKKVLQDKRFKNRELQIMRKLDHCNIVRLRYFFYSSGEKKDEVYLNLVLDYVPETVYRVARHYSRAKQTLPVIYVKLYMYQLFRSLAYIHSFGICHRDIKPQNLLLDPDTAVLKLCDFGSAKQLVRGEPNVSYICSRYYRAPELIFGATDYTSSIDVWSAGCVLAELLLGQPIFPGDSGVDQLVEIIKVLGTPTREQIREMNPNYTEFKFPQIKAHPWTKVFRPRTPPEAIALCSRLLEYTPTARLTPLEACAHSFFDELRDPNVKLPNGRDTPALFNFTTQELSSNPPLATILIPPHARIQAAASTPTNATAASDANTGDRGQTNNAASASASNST", "summary_of_the_method": "(§1)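 Two 10 µM single-concentration screens were run: a competition-binding screen, in which DNA-tagged kinase bound to immobilized ligands was quantified by qPCR, and a radiometric activity panel at Km ATP. Each is expressed as residual kinase activity (%).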"}, "JAK3(h)": {"target": "T2, JAK3(h) (Homo sapiens, UniProt P52333)", "T2 sequence (P52333 1-1124)": "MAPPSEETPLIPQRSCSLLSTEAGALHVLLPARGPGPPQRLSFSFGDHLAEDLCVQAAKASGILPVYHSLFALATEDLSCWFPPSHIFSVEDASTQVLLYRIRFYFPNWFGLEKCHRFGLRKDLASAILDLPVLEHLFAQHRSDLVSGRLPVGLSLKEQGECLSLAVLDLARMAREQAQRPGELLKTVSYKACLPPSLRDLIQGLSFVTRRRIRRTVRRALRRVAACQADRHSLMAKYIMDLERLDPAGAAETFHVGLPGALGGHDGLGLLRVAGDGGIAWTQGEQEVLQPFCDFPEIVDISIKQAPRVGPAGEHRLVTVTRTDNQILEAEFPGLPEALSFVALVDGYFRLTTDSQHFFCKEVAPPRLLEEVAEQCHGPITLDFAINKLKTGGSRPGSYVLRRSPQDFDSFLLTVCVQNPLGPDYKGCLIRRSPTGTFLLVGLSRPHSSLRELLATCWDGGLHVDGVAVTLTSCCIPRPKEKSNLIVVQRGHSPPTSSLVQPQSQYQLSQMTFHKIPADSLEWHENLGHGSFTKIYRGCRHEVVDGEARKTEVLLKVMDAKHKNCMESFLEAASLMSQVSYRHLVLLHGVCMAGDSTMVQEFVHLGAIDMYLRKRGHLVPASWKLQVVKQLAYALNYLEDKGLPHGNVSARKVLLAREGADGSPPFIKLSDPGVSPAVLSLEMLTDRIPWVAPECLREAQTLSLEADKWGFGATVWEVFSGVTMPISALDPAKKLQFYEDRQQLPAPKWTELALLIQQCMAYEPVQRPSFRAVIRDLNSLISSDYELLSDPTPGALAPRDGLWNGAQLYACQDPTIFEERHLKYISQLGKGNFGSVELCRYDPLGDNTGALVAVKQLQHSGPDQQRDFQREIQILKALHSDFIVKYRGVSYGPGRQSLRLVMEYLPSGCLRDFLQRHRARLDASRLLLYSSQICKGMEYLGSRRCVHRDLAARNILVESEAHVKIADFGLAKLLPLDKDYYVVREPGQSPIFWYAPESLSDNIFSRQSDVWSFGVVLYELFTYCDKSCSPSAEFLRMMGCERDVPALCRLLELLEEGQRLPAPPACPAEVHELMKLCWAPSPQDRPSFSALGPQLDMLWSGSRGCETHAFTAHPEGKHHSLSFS", "summary_of_the_method": "as §1"}, "MAK(h)": {"target": "T3, MAK(h) (Homo sapiens, UniProt P20794)", "T3 sequence (P20794 1-623)": "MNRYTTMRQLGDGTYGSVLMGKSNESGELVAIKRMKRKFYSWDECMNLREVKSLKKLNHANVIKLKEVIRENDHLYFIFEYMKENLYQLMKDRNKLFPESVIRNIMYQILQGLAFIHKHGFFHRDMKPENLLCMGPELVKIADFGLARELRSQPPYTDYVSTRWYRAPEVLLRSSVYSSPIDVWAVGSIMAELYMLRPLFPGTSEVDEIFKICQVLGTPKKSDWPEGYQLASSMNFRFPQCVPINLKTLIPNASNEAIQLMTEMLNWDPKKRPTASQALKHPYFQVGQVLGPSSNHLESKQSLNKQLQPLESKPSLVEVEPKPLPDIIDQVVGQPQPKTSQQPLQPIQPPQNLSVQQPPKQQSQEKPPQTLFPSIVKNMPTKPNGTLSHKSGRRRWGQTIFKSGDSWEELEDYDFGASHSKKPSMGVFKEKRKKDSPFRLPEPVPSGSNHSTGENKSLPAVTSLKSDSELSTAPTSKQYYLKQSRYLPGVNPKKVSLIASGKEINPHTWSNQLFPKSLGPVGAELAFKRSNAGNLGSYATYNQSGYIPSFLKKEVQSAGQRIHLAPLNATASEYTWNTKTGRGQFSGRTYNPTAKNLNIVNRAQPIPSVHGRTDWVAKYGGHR", "summary_of_the_method": "as §1"}, "[1]": {"conditions": "read-out: Residual activity (%) Spautin-1 5aa"}, "[2]": {"conditions": "read-out: Residual activity (%) 5as"}, "[3]": {"conditions": "read-out: Residual activity (%) 5at"}, "[4]": {"conditions": "read-out: Residual activity (%) 5ay"}}, "note": "Like-named read-outs stand apart in the source and are kept apart here."}
{"smiles": "Fc1ccc(CNc2ncnc3ccc(F)cc23)cc1", "note": "[5aa, 6-Fluoro-N-(4-fluorobenzyl)-4-Quinazolinamine]", "values": [{"measurement": "remaining activity at 10 µM", "setting": "GSK3β(h); [1]", "result": 85, "unit": "%"}, {"measurement": "remaining activity at 10 µM", "setting": "JAK3(h); [1]", "result": 94, "unit": "%"}, {"measurement": "remaining activity at 10 µM", "setting": "MAK(h); [1]", "result": 89, "unit": "%"}]}
{"smiles": "Fc1ccc(CCNc2ncnc3ccc(F)cc23)cc1", "note": "[5as, 6-Fluoro-N-[2-(4-Fluorophenyl)Ethyl]-4-Quinazolinamine]", "values": [{"measurement": "remaining activity at 10 µM", "setting": "GSK3β(h); [2]", "result": 91, "unit": "%"}, {"measurement": "remaining activity at 10 µM", "setting": "JAK3(h); [2]", "result": 94, "unit": "%"}, {"measurement": "remaining activity at 10 µM", "setting": "MAK(h); [2]", "result": 77, "unit": "%"}]}
{"smiles": "Fc1ccc2ncnc(NCCc3ccc(Cl)cc3)c2c1", "note": "[5at, N-[2-(4-Chlorophenyl)Ethyl]-6-Fluoro-4-Quinazolinamine]", "values": [{"measurement": "remaining activity at 10 µM", "setting": "GSK3β(h); [3]", "result": 97, "unit": "%"}, {"measurement": "remaining activity at 10 µM", "setting": "JAK3(h); [3]", "result": 92, "unit": "%"}, {"measurement": "remaining activity at 10 µM", "setting": "MAK(h); [3]", "result": 76, "unit": "%"}]}
{"smiles": "COc1ccc2ncnc(Nc3cccc(F)c3)c2c1", "note": "[5ay, N-(3-Fluorophenyl)-6-Methoxy-4-Quinazolinamine]", "values": [{"measurement": "remaining activity at 10 µM", "setting": "GSK3β(h); [4]", "result": 76, "unit": "%"}, {"measurement": "remaining activity at 10 µM", "setting": "JAK3(h); [4]", "result": 91, "unit": "%"}, {"measurement": "remaining activity at 10 µM", "setting": "MAK(h); [4]", "result": 74, "unit": "%"}]}
